# Results taken from patent US5324747A, “N-substituted anilines, inhibitors of phospholipases A2” (Hoffmann-La Roche Inc., priority 1992, dated 1994).
# Experiments:
# [1] = tested on: rat carrageenan-induced paw edema; experiment: Rat Carrageenan Paw Edema; format: in vivo, Lewis rats; conditions: 2 h, 30 mg/kg ip
# Method: Rat Carrageenan Paw Edema
# Representative compounds of the invention were tested in rat carrageenan-induced paw edema to determine their ability to inhibit this acute inflammatory response. Test compounds are administered intraperitoneally or orally to groups of seven Lewis rats (≈200 gm) 1 hr prior to carrageenan administration. The test compounds are dissolved in dimethyl sulfoxide for intraperitoneal administration and dissolved or suspended in Labrafil […] for oral administration. At 0 hour, 0.1 mL of 1% carrageenan dissolved in pyrogen free saline is injected subplantarly into the right hind paw to elicit the inflammatory response. The volume (in mL) of the right hind paw is measured by immersion of the paw to the level of the lateral malleolus in an aqueous plethysmometer immediately prior to the injection of carrageenan and then at 1, 2 and 4 hr after carrageenan injection. The paw edema is calculated by substracting the zero time reading from the readings taken after injection. The percent change of the edema volume from the vehicle treated control is calculated to determine the activity of the test compound. Statistical analysis of the mean paw edema values of the control versus the treated groups are performed using Student's t-test.
# HSF-PLA2 = target: T1, HSF-PLA2 (Homo sapiens, UniProt P14555); experiment: Assay for Inhibition of HSF-PLA2 In Vitro; format: biochemical; conditions: for IC50: read-out: Inhib of HSF-PLA2 IC50
# T1 construct: extracellular enzyme obtained from human synovial fluid (HSF-PLA2); from tissue; host or cells: pooled human synovial fluid, added at 0.1% (v/v)
# T1 sequence (P14555 21-144): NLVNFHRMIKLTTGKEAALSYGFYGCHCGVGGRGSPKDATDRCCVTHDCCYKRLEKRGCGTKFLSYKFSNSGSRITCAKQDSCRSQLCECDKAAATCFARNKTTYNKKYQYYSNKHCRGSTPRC
# How it was run: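 Extracellular PLA2 isolated from human synovial fluid, incubated 30 min at 37 °C with 14C-labelled phospholipid substrate in duplicate. Lipids were chloroform-extracted, and released 14C-oleic acid was separated from substrate by silica TLC; a no-enzyme control was run in each experiment.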
# PLA2 Rat Paw Edema = experiment: Phospholipase A2 Rat Paw Edema; format: in vivo, Lewis rats; conditions: Rattus norvegicus; 2 hr; 30 mg/kg; read-out: % Inhib of PLA2 Rat Paw Edema 2 hr (30 mg/kg)
# Method: Phospholipase A2 Rat Paw Edema
# Representation compounds of the invention were tested in rats to determine their ability to inhibit the acute inflammatory response induced by the injection of snake venom phospholipase A2. Test compounds are administered intraperitoneally or orally to groups of seven Lewis rats (≈200 gm) 1 hr prior to phospholipase A2 administration. The test compounds are dissolved in dimethyl sulfoxide for intraperitoneal administration and dissolved or suspended in Labrafil M-1944CS for oral administration. At 0 hr, 5 ug (10 units) of purified phospholipase A2 from Naja naja venom (Sigma Chem. Co.) dissolved in 0.1 mL of pyrogen free saline is injected subplantarly into the right hind paw to elicit the inflammatory response. The volume (in mL) of the right hind paw is measured by immersion of the paw to the level of the lateral malleolus in an aqueous plethysmometer immediately prior to the injection of phospholipase A2 and then at 0.5, 2 and 4 hr after phospholipase A2 injection. The paw edema is calculated by subtracting the zero time reading from the readings taken after injection. The percent change of the edema volume from the vehicle treated control is calculated to determine the activity of the test compound. Statistical analysis of the mean paw edema values of the control versus the treated groups is performed using Student's t-test. Significance of changes from mean value for vehicle-treated animals (*p<0.05, **p<0.01, ***p<0.001, ns/not significant).
# [2] = tested on: Croton Oil Mouse Ear Edema; experiment: Croton Oil Mouse Ear Edema Test; format: in vivo, CD-1 mice; conditions: topical, coapplied, 6 hours
# [3] = read-out: Inhib of HSF-PLA2, % inhibition
SMILES,inhibition in vivo at 30 mg/kg [1],inhibition at 1 µM (HSF-PLA2; [3]),inhibition in vivo at 30 mg/kg (PLA2 Rat Paw Edema),% Inhib of Croton Oil Mouse Ear Edema (1 mg) [2],IC50 (HSF-PLA2),"inhibition at 10 µM (HSF-PLA2; (10 μM), read-out: Inhib of HSF-PLA2, % inhibition)",inhibition at 5 µM (HSF-PLA2; [3])
"CCCCCCCCCCCCCCCCCCOc1cc(OCCCCc2ccc3cc(O)c(O)cc3c2)cc(N(CC(=O)O)CC(=O)O)c1 [Example 154, N-(Carboxymethyl)-N-[3-[4-(2,3-dihydroxy-6-naphthalenyl)butoxy]-5-(octadecyloxy)phenyl]glycine]",70%,96%,78%,–,–,–,–
"CCCCCCCCCCNC(=O)c1cc(NCC(=O)O)cc(C(=O)NCCCCCCCCCC)c1 [Example 12, N-[3,5-Bis[(decylamino)carbonyl]phenyl]glycine]",–,–,34%,70%,5200 nM,–,–
"CCCCCCCCCCCCCCCCCCOc1cc(N(CC(=O)O)CC(=O)O)cc([N+](=O)[O-])c1 [Example 93, N-(Carboxymethyl)-N-[3-nitro-5-(octadecyloxy)phenyl]glycine]",–,56%,20%,0%,–,–,–
"CCCCCCCCCCOc1cc(C(=O)O)cc(N(CC(=O)O)CC(=O)O)c1 [Example 69d, N-[3-carboxy-5-(decyloxy)phenyl]-N-(carboxymethyl)glycine]",–,7%,0%,63%,–,–,–
"O=C(O)CCCCCCCCCCOc1cc(OCCCCCCCCCCC(=O)O)cc(N(CC(=O)O)CC(=O)O)c1 [Example 6k, N-(carboxymethyl)-N-[3,5-bis[(11-hydroxy-11-oxoundecyl)oxy]phenyl]glycine]",–,–,0%,16%,–,35%,–
"CCCCCCCCCCCCCCCCCCOc1cc(N(CC(=O)O)CC(=O)O)cc([S+]([O-])CC(=O)O)c1 (stereo not drawn) [Example 168, [[3-[bis(Carboxymethyl)amino]-5-(octadecyloxy)phenyl]sulfinyl]acetic acid]",–,26%,45%,83%,–,–,–
"CCCCCCCCCCOC(=O)c1cc(C(=O)OCCCCCCCCCC)cc(N(CC(=O)O)CC(=O)O)c1 [Example 6v, N-(carboxymethyl)-N-[3,5-bis[(decyloxy)carbonyl]phenyl]glycine]",–,73%,9%,80%,–,–,–
CCCCCCCCCCCCCCCCCC(=O)Oc1cccc(N(CC(=O)O)CC(=O)O)c1 [Example 36b],–,–,0%,61%,200 nM,–,–
"CCCCCCCCCCCCCCCCCCOc1cc(OCCCOc2ccc(O)cc2)cc(N(CC(=O)O)CC(=O)O)c1 [Example 58l, N-(carboxymethyl)-N-[3-[3-(4-hydroxyphenoxy)propoxy]-5-(octadecyloxy)phenyl]glycine]",–,81%,53%,76%,–,–,–
"CCCCCCCCCCCCCCCCCCOc1cc(C(=O)OC)cc(N(CC(=O)O)CC(=O)O)c1 [Example 69, N-(Carboxymethyl)-N-[3-(methoxycarbonyl)-5-(octadecyloxy)phenyl]glycine]",–,–,57%,22%,100 nM,–,–
"CCCCCCCCCCCCCCCCCCOc1cc(OCCCOc2cccc(OC)c2)cc(N(CC(=O)O)CC(=O)O)c1 [Example 58j, N-(carboxymethyl)-N-[3-[3-(3-methoxyphenoxy)propoxy]-5-(octadecyloxy)phenyl]glycine]",–,–,57%,28%,60 nM,–,–
"CCCCCCCCCCCCCCCCCCOc1cc(OCC(=O)OC)cc(N(CC(=O)O)CC(=O)O)c1 [Example 58b, N-(carboxymethyl)-N-[3-(2-methoxy-2-oxoethoxy)-5-(octadecyloxy)phenyl]glycine]",–,–,20%,19%,–,–,91%
"CCCCCCCCCCCCCCCCCCOc1cc(OCCOc2ccc3ccccc3c2)cc(N(CC(=O)O)CC(=O)O)c1 [Example 58h, N-(carboxymethyl)-N-[3-[2-(2-naphthalenyloxy)ethoxy]-5-(octadecyloxy)phenyl]glycine]",–,–,31%,3%,50 nM,–,–
"CCCCCCCCCCCCCCCCCNC(=O)Oc1cccc(N(CC(=O)O)CC(=O)O)c1 [Example 36c, N-(carboxymethyl)-N-[3-[[(heptadecylamino)carbonyl]oxy]phenyl]glycine]",–,–,0%,0%,1000 nM,–,–
"CCCCCCCCCCCCCCCCCCOc1cc(OCCCCC(=O)O)cc(N(CC(=O)O)CC(=O)O)c1 [Example 65, N-[3-(4-Carboxybutoxy)-5-(octadecyloxy)phenyl]-N-(carboxymethyl)glycine]",–,–,35%,91%,860 nM,–,–
"CCCCCCCCCCCCCCOc1ccc(N(CC(=O)O)CC(=O)O)cc1OCCCCCCCCCCCCCC [Example 119, N-(Carboxymethyl)-N-[3,4-bis(tetradecyloxy)phenyl]glycine]",–,36%,16%,49%,–,–,–
"CCCCCCCCCCCCCCCCCCOc1cc(N)cc(N(CC(=O)O)CC(=O)O)c1 [Example 94, N-(Carboxymethyl)-N-[3-amino-5-(octadecyloxy)phenyl]glycine]",–,–,28%,10%,420 nM,–,–
"CCCCCCCCCCCCCCCCCCOc1cc(OCc2ccc3ccccc3n2)cc(N(CC(=O)O)CC(=O)O)c1 [Example 148, N-(Carboxymethyl)-N-[3-(octadecyloxy)-5-[(2-quinolinyl)methoxy]phenyl]glycine]",–,91%,37%,26%,–,–,–
"CCCCCCCCCCCCCCCCCCOc1cc(C(N)=O)cc(N(CC(=O)O)CC(=O)O)c1 [Example 75, N-(Carboxymethyl)-N-[(3-carbamoyl)-5-(octadecyloxy)phenyl]glycine]",–,–,33%,15%,–,–,84%
"CCCCCCCCCCCCCCOc1cc(C(=O)O)cc(N(CC(=O)O)CC(=O)O)c1 [Example 69b, N-[3-carboxy-5-(tetradecyloxy)pyhenyl]-N-(carboxymethyl)glycine]",–,18%,4%,72%,–,–,–
"COC(=O)CCCCCCCCCCOc1cc(OCCCCCCCCCCC(=O)OC)cc(N(CC(=O)O)CC(=O)O)c1 [Example 6j, N-(carboxymethyl)-N-[3,5-bis[(11-methoxy-11-oxoundecyl)oxy]phenyl]glycine]",–,–,0%,66%,300 nM,–,–
"CCCCCCCCCCCCCCCCCCOc1cc(OCCCOc2ccc(OC)cc2)cc(N(CC(=O)O)CC(=O)O)c1 [Example 58k, N-(carboxymethyl)-N-[3-[3-(4-methoxyphenoxy)propoxy]-5-(octadecyloxy)phenyl]glycine]",–,–,0%,85%,50 nM,–,–
"CCCCCCCCCCCCCCCCCCOc1cc(OCCCOc2ccc(C(=O)OC)cc2)cc(N(CC(=O)O)CC(=O)O)c1 [Example 58o, N-(carboxymethyl)-N-[3-[3-[4-(methoxycarbonyl)phenoxy)propoxy]-5-(octadecyloxy)phenyl]glycine]",–,–,0%,30%,100 nM,–,–
CCCCCCCCCCN(CCCCCCCCCC)C(=O)c1cccc(N(CC(=O)O)CC(=O)O)c1 [Example 174],–,–,46%,29%,–,–,74%
